# Measured values as given in ChEMBL document CHEMBL1201862, “PubChem BioAssay data set” (2004).
# The source made the active and inactive calls.
# Columns and labels:
# [1] = target: T1, COUP transcription factor 2 (Homo sapiens, UniProt P24468); experiment: Luminescence-based cell-based high throughput dose response assay to identify inhibitors of COUP-TFII (NR2F2).; type: functional;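 also: HEK293 cells transiently cotransfected with COUP-TFII expression vector and reporter; luciferase reporter luminescence driven by COUP-TFII from the pX2-168 reporter plasmid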
# T1 sequence (P24468 whole entry): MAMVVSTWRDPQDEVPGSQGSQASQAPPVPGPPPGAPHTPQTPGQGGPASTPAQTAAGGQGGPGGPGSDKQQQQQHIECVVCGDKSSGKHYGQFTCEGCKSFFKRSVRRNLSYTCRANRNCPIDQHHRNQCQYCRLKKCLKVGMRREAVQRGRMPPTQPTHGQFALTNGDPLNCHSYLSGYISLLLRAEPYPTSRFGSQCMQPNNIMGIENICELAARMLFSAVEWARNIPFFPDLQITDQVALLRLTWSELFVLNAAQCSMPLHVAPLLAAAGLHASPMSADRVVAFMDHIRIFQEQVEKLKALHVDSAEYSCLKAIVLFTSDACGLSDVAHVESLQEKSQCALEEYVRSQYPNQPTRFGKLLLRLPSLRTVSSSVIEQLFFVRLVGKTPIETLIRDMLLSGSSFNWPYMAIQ
# [2] = reduced cellular PGC1a acetyl-lysine signal – cell-based, cherry-picked samples, dose response (AID 720514); type: functional;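 also: potency may reflect raised or lowered acetylation signal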
# [3] = HGIII-sPLA2 enzyme inhibition potency – biochemical, QFRET, IC50, dose response (AID 743457);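 also: green fluorescence rise as the enzyme cleaves BODIPY PC-A2 in liposomes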
# cells [4] = type: functional, cell-based
# cells [5] = type: functional, cell-based; remark: listed apart in the source
# [6] = target: T2, Trace amine-associated receptor 1 (Homo sapiens, UniProt Q96RJ0); experiment: Counterscreen for agonists of the human trace amine associated receptor 1 (hTAAR1): Fluorescence-based cell-based high throughput dose response assay to identify hTAAR1 agonist that also desensitize TAAR1 receptor response.; type: functional
# T2 sequence (Q96RJ0 whole entry): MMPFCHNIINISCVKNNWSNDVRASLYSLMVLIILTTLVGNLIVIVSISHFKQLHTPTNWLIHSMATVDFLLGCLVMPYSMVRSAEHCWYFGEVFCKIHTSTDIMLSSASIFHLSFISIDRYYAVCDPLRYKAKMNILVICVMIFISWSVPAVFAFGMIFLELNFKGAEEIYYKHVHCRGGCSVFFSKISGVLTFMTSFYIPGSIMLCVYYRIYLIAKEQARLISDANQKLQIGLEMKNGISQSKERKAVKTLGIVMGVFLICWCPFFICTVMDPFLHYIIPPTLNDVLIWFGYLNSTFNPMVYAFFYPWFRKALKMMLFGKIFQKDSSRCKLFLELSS
# [7] = target: T2, Trace amine-associated receptor 1; experiment: Fluorescence-based cell-based high throughput dose response assay to identify agonists of the human trace amine associated receptor 1 (TAAR1).; type: functional
# HEK293 [8] = experiment: NOD2 signaling inhibitors in MDP-stimulated cells, cell-based, uHTS, luminescence (AID 2001); type: functional; settings: Homo sapiens
# Tumor necrosis factor = Tumor necrosis factor (Homo sapiens, UniProt P01375); experiment: analog potency on TNFa NF-kB signaling – cell-based, revised, SAR follow-up (AID 2337); type: functional
# Chain of Tumor necrosis factor (P01375 whole entry): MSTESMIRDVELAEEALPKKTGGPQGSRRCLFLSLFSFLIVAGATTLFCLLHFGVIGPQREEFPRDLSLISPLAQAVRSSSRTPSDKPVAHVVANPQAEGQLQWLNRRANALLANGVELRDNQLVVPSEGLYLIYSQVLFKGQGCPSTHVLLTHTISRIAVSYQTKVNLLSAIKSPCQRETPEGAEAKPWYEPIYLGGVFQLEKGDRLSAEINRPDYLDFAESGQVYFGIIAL
# HEK293 [9] = experiment: inhibition of NOD1-driven NF-kB reporter – cell-based, luminescence, uHTS, primary screen (AID 1578); type: functional; settings: Homo sapiens
# [10] = non-specific 3'UTR reporter inhibition in Clone20-Shn3RL – cell-based, Renilla luciferase, cherry-picked, counter-screen for Shn3 inhibitor project, dose response (AID 624133); type: functional
# [11] = target: T3, Nucleotide-binding oligomerization domain-containing protein 1 (Homo sapiens, UniProt Q9Y239); experiment: blockers of NOD1 pathway activity – revised, SAR follow-up (AID 2333); type: functional
# T3 sequence (Q9Y239 whole entry): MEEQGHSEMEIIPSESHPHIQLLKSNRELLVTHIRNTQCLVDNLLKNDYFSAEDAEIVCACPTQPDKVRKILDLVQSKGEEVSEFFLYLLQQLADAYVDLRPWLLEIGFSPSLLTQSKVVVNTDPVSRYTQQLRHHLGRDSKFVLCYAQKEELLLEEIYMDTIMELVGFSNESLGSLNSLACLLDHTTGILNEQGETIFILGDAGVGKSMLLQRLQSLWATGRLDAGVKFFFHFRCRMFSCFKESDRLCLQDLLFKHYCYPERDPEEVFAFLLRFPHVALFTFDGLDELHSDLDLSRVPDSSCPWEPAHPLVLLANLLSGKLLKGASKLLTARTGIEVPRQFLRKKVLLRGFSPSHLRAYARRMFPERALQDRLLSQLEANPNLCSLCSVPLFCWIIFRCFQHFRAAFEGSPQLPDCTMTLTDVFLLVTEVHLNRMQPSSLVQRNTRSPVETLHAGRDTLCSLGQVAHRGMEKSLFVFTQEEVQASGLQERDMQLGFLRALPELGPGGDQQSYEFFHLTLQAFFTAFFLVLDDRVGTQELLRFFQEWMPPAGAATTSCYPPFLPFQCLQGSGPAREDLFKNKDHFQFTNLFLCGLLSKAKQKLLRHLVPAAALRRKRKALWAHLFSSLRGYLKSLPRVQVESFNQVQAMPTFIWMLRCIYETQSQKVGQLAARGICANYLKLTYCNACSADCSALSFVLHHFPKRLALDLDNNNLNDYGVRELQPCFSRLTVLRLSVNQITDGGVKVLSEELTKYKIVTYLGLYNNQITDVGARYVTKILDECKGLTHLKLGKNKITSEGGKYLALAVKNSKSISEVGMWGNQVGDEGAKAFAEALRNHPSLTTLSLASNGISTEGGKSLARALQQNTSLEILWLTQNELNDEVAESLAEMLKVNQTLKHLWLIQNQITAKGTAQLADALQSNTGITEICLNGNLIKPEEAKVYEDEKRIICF
# HEK293 [12] = experiment: cells; settings: Homo sapiens
# INS1 = experiment: INS-1E survival protection against cytokine death – cell-based, luminescence, retest, dose response (AID 449756); type: functional; settings: Rattus norvegicus;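 also: cell death triggered by IL-1 beta plus TNF-alpha plus IFN-gamma mixture; protective hits raise ATP signal compared with cytokine alone wells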
# HEK293 [13] = experiment: cells; type: functional, cell-based; settings: Homo sapiens
# [14] = reduction of Shn3 3'UTR-driven luciferase in osteoblasts – cell-based, Clone20 osteoblasts, firefly luciferase, cherry-picked, dose response (AID 624132); type: functional;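 also: firefly luciferase luminescence from reporter carrying the Shn3 3'UTR in osteoblasts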
# HEK293 [15] = experiment: cells; type: functional, cell-based; settings: Homo sapiens; remark: listed apart in the source
# [16] = target: T4, Zinc finger protein mex-5 (Caenorhabditis elegans, UniProt Q9XUB2); experiment: potency of MEX-5 RNA-binding blockers – biochemical, C. elegans, fluorescence polarization, dose response (AID 1960)
# T4 sequence (Q9XUB2 whole entry): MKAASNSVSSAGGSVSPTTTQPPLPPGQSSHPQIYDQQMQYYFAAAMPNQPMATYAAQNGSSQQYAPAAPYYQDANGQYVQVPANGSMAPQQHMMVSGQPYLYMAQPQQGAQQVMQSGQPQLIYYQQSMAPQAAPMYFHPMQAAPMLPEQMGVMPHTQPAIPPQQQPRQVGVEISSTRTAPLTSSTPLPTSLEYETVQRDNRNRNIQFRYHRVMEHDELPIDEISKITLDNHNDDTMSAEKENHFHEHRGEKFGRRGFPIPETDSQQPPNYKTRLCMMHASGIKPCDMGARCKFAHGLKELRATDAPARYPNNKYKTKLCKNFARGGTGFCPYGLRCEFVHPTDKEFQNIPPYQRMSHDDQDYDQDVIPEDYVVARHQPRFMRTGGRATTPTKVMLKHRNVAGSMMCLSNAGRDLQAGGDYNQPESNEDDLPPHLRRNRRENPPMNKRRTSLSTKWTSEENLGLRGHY
# [17] = target: T5, RNA-binding protein pos-1 (Caenorhabditis elegans, UniProt G5EF15); experiment: disruptors of C. elegans POS-1 RNA interaction – biochemical, fluorescence polarization, dose response (AID 1964);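 also: purified POS-1 fused to maltose binding protein made in E. coli; potency of compounds blocking POS-1 binding to fluorescent RNA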
# T5 sequence (G5EF15 whole entry): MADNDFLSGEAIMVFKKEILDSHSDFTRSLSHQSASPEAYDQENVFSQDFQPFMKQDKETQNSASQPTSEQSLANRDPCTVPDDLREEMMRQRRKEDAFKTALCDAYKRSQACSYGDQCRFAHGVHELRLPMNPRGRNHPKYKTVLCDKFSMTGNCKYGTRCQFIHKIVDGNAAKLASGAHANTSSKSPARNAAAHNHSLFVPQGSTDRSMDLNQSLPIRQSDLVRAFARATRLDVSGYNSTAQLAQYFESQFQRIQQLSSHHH
# Beta-lactamase [18] = target: Beta-lactamase (Salmonella choleraesuis (strain SC-B67), UniProt Q5J463)
# Chain of Beta-lactamase (Salmonella choleraesuis (strain SC-B67), UniProt Q5J463) (Q5J463 whole entry): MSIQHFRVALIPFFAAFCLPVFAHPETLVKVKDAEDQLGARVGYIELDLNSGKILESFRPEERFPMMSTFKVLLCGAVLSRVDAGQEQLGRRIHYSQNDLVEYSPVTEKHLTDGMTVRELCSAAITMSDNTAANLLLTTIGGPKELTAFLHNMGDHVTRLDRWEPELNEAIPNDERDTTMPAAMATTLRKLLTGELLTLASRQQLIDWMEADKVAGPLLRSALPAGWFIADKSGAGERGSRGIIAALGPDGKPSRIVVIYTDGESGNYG
# Beta-lactamase [19] = target: Beta-lactamase (Pseudomonas aeruginosa, UniProt Q79MP6);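 also: biochemical dose-response test of metallo-beta-lactamase enzyme inhibition, read out by epi-absorbance; purified recombinant IMP-1 metallo-beta-lactamase with nitrocefin as substrate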
# Chain of Beta-lactamase (Pseudomonas aeruginosa, UniProt Q79MP6) (Q79MP6 whole entry, the tested form may be a part): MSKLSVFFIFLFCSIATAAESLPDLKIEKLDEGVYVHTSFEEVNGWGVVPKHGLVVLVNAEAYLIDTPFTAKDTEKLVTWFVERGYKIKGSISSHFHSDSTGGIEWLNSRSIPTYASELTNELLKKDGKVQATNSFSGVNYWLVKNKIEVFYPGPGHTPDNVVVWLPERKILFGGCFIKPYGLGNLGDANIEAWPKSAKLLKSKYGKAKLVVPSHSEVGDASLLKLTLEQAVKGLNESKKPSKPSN
# [20] = viability loss in CEM21 cells – cell-based, CellTiter-Glo luminescence, cherry-picked, cytotoxicity control for viral fusion inhibitor project, dose response (AID 652042); type: functional;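 also: potency for signal decrease meaning cytotoxicity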
# [21] = HIV-1 AD8 envelope cell-cell fusion blockers – cherry-pick, dose response (AID 652062); type: functional, cell-based;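 also: luciferase signal from cell-cell fusion driven by HIV-1 clade B AD8 Env; potency is for inhibitors of fusion seen as a drop in luminescence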
# [22] = off-target signal loss in HeLa-CEM21 co-culture – HeLa F-luc CTL cells, cherry-picked, counter-screen for HIV-1 Env fusion inhibitor project, dose response (AID 652040); type: functional, cell-based;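 also: potency for signal decrease marking cytotoxic or nonspecific inhibition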
# [23] = blockers of HIV-1 ZM109 envelope-driven cell-cell fusion – HeLa effector, CEM target cells, luciferase, cherry-pick, dose response (AID 652058); type: functional, cell-based;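 also: luciferase signal from HIV-1 Env mediated cell-cell fusion of effector and target cells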
# [24] = target: Voltage-dependent T-type calcium channel subunit alpha-1H (Homo sapiens, UniProt O95180); type: functional;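 also: channel activity triggered by adding a high calcium stimulation buffer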
# Chain of Voltage-dependent T-type calcium channel subunit alpha-1H (O95180 whole entry, the tested form may be a part): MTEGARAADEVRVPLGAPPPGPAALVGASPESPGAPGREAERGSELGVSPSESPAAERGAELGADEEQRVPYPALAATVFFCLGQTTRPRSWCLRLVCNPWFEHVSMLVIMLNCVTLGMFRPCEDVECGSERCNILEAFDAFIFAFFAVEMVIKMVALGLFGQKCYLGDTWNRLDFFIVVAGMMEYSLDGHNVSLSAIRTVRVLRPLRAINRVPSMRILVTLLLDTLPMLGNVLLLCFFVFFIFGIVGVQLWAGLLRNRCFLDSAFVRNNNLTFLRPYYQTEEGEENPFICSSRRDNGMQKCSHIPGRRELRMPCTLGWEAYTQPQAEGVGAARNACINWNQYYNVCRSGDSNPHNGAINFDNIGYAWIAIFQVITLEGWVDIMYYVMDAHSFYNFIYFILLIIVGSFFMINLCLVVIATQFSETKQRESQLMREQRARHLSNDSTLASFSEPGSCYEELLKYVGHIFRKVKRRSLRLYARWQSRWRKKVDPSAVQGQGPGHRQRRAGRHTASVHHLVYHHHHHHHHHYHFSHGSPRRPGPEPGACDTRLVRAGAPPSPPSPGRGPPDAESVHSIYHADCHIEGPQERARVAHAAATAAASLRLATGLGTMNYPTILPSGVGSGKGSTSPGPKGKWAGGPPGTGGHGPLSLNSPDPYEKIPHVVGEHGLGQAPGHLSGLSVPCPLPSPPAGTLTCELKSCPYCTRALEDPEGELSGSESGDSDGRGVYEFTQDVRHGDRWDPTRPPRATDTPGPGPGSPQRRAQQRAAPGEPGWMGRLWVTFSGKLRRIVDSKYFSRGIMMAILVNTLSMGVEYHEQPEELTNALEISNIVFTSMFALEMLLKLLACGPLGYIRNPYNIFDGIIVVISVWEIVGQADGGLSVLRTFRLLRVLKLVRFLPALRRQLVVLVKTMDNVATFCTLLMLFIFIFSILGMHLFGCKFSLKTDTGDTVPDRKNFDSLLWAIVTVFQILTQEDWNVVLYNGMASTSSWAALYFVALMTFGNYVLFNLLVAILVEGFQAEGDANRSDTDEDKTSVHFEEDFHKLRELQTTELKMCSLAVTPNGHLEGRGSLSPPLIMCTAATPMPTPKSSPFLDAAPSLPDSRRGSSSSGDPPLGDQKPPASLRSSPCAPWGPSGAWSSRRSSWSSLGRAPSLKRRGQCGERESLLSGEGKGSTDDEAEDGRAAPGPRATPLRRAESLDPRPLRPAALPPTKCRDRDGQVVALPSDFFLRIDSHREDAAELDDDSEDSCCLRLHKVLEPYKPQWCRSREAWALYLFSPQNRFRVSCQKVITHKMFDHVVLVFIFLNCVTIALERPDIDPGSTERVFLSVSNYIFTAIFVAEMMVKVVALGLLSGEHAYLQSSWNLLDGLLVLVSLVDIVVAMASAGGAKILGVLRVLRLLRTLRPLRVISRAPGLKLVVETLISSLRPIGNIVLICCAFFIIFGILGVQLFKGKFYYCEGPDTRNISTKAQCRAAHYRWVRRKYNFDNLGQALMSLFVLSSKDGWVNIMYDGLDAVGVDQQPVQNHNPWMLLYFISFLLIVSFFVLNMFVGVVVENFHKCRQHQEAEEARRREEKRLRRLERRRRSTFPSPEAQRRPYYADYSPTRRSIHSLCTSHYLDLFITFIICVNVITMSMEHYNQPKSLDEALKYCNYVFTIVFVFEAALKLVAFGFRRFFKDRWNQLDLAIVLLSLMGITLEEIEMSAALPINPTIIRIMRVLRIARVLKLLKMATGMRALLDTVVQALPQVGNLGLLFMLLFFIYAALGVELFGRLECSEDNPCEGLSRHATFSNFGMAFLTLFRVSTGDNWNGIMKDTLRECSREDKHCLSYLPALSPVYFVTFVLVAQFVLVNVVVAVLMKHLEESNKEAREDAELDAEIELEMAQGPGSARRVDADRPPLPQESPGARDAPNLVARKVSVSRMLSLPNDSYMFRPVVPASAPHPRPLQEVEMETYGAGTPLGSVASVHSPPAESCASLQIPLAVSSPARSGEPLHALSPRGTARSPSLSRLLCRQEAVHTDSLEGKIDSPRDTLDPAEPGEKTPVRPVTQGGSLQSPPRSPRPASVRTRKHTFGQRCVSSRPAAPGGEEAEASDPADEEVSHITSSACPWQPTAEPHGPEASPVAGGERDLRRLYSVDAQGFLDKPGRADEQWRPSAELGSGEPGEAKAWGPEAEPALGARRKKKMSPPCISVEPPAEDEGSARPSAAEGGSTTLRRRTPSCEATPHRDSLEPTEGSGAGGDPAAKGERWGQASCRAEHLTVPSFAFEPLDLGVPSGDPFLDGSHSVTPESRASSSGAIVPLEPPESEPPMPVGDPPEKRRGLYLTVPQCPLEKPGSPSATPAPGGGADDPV
# [25] = blockers of HIV-1 envelope-mediated cell-cell fusion – cherry-pick, dose response (AID 652057); type: functional, cell-based
smiles,measurement,setting,value
CC(=O)N[C@@H](C)c1nc2ccccc2n1CCCN1CCN(c2nc(-c3ccc(C)cc3)cs2)CC1,IC50,[1],6.84 µM (active)
COc1cccc(-n2c(Cc3cc(O)nc(O)n3)nnc2SCc2cccc(C(F)(F)F)c2)c1,AC50,[2],35.1 µM (active)
O=C(CNc1cccc(Cl)c1)NNC(=S)NCc1ccccc1,IC50,[3],> 122 µM (inactive)
Clc1ccc(CCNCc2ccncc2)c(Cl)c1,EC50,cells [4],> 29.9 µM (inactive)
same,IC50,cells [5],> 29.9 µM (inactive)
same,IC50,[6],6.77 µM (active)
same,EC50,[7],2.01 µM (active)
Cc1cc(C(=O)NC2CCCc3c2cnn3-c2cccc(C)c2C)n(C)n1 (stereo not drawn),IC50,HEK293 [8],0.609 µM (inactive)
same,IC50,Tumor necrosis factor,0.703 µM (active)
same,EC50,HEK293 [9],0.17 µM (active)
same,AC50,[10],< 0.26 µM (active)
same,IC50,[11],0.289 µM (active)
same,IC50,HEK293 [12],> 20 µM (inactive)
same,AC50,INS1,0.216 µM (active)
same,IC50,[1],0.628 µM (active)
same,IC50,HEK293 [13],> 20 µM (inactive)
same,AC50,[14],< 0.26 µM (active)
same,IC50,HEK293 [15],0.922 µM (active)
CCCCCCn1c(=O)[nH]c2nc3cc(N)ccc3nc2c1=O,EC50,[16],> 300 µM (inconclusive)
same,EC50,[17],> 300 µM (inconclusive)
same,IC50,Beta-lactamase [18],9.7 µM (active)
same,IC50,Beta-lactamase [19],> 59.6 µM (inactive)
CCOc1ccc([N+](=O)[O-])cc1CNCCc1ccccc1,EC50,cells [4],> 29.9 µM (inactive)
same,IC50,cells [5],> 29.9 µM (inactive)
same,IC50,[6],4.18 µM (active)
same,EC50,[7],0.337 µM (active)
Clc1ccc(-n2ncc3c(NCCN4CCOCC4)ncnc32)cc1,IC50,[1],35.7 µM (inactive)
Clc1ccc(C(c2nnnn2CCc2ccccc2)N2CCSCC2)cc1 (stereo not drawn),AC50,[20],62.2 µM (active)
same,AC50,[21],1.14 µM (active)
same,AC50,[22],4.45 µM (active)
same,AC50,[23],7.63 µM (active)
same,EC50,[24],8.87 µM (active)
same,AC50,[25],2 µM (active)
